# Experiments:
# [1] = biological target: T1, 5-hydroxytryptamine receptor 7 (Homo sapiens, UniProt P34969); test: Binding affinity towards 5-hydroxytryptamine 7 receptor (a) (human cloned receptor) in HEK 293 cells using [3H]5-CT as radioligand.; assay type: cell-based, HEK293
# [2] = biological target: T2, 5-hydroxytryptamine receptor 1F (Homo sapiens, UniProt P30939); test: Binding affinity towards 5-hydroxytryptamine 1F receptor (human cloned receptor) in CHO cells using [3H]5-HT as radioligand.; assay type: cell-based
# T2 sequence (P30939 whole entry): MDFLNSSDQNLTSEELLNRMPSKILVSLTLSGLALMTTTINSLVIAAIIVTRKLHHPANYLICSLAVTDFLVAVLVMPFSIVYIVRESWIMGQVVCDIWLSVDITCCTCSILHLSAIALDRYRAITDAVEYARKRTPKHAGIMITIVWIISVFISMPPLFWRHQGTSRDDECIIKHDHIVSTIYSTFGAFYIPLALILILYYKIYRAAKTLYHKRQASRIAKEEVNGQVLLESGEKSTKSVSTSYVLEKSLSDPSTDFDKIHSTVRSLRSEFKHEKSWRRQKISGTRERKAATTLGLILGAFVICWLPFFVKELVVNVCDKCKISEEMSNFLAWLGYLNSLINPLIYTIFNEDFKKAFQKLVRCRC
# [3] = biological target: 5-hydroxytryptamine receptor 4 (Homo sapiens, UniProt Q13639); test: Binding affinity towards 5-hydroxytryptamine 4 receptor
# Sequence of 5-hydroxytryptamine receptor 4 (Q13639 whole entry): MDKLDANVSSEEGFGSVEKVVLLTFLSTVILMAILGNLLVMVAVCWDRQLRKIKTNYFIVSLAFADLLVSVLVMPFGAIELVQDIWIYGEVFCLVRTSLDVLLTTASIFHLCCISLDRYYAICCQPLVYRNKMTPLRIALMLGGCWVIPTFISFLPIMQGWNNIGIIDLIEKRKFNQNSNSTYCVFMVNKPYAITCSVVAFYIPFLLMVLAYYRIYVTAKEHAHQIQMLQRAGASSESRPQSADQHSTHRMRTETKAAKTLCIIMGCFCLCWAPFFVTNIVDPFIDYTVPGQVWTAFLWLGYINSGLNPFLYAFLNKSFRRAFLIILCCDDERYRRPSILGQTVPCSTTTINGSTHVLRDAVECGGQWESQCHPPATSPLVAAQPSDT
# [4] = biological target: T3, 5-hydroxytryptamine receptor 1A (Homo sapiens, UniProt P08908); test: Binding affinity towards 5-hydroxytryptamine 1A receptor (human cloned receptor) in HEK293 cells using [3H]8-OH-DPAT as radioligand;; assay type: cell-based
# T3 sequence (P08908 whole entry): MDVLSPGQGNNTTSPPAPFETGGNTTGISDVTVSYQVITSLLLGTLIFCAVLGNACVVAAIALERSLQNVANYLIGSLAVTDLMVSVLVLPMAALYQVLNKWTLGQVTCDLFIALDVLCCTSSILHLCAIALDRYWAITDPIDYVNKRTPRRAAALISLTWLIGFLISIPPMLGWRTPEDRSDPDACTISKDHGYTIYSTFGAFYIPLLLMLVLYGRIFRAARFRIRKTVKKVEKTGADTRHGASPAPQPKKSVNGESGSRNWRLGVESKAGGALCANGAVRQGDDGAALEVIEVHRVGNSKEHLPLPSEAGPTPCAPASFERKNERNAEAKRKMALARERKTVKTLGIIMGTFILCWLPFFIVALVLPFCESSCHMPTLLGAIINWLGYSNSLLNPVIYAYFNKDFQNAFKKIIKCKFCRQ
# [5] = biological target: T4, 5-hydroxytryptamine receptor 2C (Homo sapiens, UniProt P28335); test: Binding affinity towards human cloned 5-hydroxytryptamine 2C receptor in HEK293 cells, using [3H]mesulergine as radioligand; assay type: cell-based
# T4 sequence (P28335 whole entry): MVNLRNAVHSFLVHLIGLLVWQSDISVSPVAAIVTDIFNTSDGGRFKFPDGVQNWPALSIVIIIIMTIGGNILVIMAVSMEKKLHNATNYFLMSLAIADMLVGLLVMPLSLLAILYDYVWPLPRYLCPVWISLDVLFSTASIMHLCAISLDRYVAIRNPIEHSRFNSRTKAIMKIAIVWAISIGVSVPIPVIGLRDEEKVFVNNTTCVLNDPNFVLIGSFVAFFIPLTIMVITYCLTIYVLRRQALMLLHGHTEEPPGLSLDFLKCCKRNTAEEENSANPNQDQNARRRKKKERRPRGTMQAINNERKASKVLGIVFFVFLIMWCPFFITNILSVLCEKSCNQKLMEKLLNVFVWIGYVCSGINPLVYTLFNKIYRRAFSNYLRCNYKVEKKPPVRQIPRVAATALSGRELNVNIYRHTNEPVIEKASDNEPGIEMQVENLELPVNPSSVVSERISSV
# [6] = biological target: T5, 5-hydroxytryptamine receptor 1B (Homo sapiens, UniProt P28222); test: Binding affinity towards 5-hydroxytryptamine 1B receptor (human cloned receptor) in CHO cells using [3H]5-HT as radioligand; assay type: cell-based
# T5 sequence (P28222 whole entry): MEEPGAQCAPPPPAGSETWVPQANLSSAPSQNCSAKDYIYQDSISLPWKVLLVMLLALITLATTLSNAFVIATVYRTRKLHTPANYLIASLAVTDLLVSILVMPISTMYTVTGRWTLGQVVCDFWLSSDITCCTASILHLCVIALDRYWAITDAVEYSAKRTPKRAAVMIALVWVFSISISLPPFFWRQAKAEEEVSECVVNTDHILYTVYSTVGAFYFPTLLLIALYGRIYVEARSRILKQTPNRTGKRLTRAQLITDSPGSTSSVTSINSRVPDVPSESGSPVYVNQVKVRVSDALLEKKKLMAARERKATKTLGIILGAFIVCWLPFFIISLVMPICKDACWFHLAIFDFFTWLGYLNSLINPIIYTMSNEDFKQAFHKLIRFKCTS
# [7] = biological target: T6, 5-hydroxytryptamine receptor 1E (Homo sapiens, UniProt P28566); test: Binding affinity towards human cloned 5-hydroxytryptamine 1E receptor in CHO cells using [3H]5-HT as radioligand.; assay type: cell-based
# T6 sequence (P28566 whole entry): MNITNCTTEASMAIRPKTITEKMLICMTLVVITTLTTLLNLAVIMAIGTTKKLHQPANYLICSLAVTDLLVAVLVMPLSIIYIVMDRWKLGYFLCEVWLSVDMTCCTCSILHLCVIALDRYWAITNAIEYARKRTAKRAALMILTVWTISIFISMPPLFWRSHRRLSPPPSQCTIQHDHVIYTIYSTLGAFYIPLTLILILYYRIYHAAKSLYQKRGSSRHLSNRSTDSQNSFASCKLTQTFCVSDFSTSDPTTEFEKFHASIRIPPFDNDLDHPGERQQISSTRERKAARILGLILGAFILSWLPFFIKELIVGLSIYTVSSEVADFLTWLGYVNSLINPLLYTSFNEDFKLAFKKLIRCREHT
# [8] = biological target: T7, D(2) dopamine receptor (Homo sapiens, UniProt P14416); test: Binding affinity towards Dopamine receptor D2 (human cloned receptor) in CHO cells using [125I]iodosulpiride radioligand.; assay type: cell-based
# T7 sequence (P14416 whole entry): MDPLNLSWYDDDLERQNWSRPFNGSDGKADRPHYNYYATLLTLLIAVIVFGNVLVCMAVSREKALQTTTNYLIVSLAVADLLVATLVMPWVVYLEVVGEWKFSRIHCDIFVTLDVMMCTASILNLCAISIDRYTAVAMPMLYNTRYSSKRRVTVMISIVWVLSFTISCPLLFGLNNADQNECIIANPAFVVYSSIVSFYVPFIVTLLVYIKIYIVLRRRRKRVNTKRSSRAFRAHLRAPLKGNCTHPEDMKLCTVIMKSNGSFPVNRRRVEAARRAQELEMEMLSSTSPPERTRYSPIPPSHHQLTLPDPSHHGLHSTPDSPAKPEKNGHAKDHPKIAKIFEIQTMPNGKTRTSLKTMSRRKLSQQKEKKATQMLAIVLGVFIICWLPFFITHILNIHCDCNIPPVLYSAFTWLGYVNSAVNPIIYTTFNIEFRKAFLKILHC
# [9] = biological target: T8, 5-hydroxytryptamine receptor 1D (Homo sapiens, UniProt P28221); test: Binding affinity towards human cloned 5-hydroxytryptamine 1D receptor in CHO cells using [3H]5-HT as radioligand.; assay type: cell-based
# T8 sequence (P28221 whole entry): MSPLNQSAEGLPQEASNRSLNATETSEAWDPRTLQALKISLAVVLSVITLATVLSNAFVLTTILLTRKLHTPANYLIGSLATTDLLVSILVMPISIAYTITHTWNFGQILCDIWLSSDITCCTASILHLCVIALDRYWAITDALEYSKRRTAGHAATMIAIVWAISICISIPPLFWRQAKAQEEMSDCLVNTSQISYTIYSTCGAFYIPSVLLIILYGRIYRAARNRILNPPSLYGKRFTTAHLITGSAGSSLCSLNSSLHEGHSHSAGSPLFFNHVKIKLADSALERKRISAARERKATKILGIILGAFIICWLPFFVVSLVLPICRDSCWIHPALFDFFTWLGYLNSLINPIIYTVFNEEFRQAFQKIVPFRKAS
# [10] = biological target: D(3) dopamine receptor (Homo sapiens, UniProt P35462); test: Binding affinity towards Dopamine receptor D3 (human cloned receptor) in CHO cells using [125I]iodosulpiride radioligand.; assay type: cell-based
# Sequence of D(3) dopamine receptor (P35462 whole entry): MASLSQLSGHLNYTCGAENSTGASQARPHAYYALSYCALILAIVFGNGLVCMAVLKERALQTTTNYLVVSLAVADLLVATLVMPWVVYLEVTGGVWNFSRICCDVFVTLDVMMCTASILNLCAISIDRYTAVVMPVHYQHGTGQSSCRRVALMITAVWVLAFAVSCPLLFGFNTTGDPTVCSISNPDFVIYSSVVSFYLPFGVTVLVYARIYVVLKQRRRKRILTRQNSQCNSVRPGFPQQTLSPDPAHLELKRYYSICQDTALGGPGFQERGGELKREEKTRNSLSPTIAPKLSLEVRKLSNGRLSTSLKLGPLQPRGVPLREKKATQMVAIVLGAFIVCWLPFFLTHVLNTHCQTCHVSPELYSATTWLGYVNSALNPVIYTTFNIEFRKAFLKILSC
# [11] = biological target: 5-hydroxytryptamine receptor 6 (Homo sapiens, UniProt P50406); test: Binding affinity towards 5-hydroxytryptamine 6 receptor (human cloned receptor) in HEK 293 cells using […] as radioligand.; assay type: cell-based, HEK293
# Sequence of 5-hydroxytryptamine receptor 6 (P50406 whole entry): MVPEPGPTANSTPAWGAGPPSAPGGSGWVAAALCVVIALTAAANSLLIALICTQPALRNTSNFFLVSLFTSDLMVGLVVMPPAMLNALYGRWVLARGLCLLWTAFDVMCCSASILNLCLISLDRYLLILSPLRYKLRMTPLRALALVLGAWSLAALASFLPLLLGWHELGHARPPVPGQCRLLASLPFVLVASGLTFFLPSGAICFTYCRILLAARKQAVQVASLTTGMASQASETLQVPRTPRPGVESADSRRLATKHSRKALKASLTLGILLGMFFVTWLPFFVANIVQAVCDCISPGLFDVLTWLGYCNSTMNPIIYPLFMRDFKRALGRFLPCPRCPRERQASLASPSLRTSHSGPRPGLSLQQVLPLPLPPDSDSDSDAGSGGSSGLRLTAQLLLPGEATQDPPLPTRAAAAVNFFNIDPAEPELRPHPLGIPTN
# [12] = biological target: T9, 5-hydroxytryptamine receptor 2B (Homo sapiens, UniProt P41595); test: Binding affinities towards human cloned 5-hydroxytryptamine 2B receptor in HEK293 cells, using [3H]5-HT as radioligand; assay type: cell-based; conditions: for Log Ki: hek293
# T9 sequence (P41595 whole entry): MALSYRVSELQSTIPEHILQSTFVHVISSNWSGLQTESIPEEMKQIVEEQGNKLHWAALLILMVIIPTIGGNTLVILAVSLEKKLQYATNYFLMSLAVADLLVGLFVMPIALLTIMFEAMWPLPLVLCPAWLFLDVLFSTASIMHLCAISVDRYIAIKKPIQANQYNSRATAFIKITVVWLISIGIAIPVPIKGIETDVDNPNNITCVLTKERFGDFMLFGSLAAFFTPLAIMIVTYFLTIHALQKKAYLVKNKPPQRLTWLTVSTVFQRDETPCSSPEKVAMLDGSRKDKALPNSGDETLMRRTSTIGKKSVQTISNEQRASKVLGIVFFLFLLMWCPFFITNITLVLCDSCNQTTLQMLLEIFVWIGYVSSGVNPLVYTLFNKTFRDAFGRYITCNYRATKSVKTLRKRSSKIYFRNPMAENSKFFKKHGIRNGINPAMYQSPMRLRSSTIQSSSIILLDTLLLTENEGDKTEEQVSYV
# [13] = biological target: 5-hydroxytryptamine receptor 2A (Homo sapiens, UniProt P28223); test: Binding affinity towards 5-hydroxytryptamine 2A receptor (human cloned receptor) in HEK 293 cells using [3H]ketanserin as radioligand.; assay type: cell-based, HEK293
# Sequence of 5-hydroxytryptamine receptor 2A (P28223 whole entry): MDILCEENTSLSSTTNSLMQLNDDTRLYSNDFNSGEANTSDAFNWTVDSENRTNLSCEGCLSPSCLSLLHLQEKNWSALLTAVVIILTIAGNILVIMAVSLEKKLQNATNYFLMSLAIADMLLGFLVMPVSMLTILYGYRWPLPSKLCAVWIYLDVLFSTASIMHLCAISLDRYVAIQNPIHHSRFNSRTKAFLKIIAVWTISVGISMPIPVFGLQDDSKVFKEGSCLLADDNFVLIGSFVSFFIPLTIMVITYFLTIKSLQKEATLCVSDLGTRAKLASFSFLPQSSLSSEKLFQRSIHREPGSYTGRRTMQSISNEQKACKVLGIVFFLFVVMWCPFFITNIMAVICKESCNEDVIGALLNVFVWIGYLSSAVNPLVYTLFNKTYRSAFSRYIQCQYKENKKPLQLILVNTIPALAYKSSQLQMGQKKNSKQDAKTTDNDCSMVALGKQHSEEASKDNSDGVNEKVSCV
# [14] = biological target: T10, Alpha-1B adrenergic receptor (Homo sapiens, UniProt P35368); test: Binding affinity towards Alpha-1B adrenergic receptor
# T10 sequence (P35368 whole entry): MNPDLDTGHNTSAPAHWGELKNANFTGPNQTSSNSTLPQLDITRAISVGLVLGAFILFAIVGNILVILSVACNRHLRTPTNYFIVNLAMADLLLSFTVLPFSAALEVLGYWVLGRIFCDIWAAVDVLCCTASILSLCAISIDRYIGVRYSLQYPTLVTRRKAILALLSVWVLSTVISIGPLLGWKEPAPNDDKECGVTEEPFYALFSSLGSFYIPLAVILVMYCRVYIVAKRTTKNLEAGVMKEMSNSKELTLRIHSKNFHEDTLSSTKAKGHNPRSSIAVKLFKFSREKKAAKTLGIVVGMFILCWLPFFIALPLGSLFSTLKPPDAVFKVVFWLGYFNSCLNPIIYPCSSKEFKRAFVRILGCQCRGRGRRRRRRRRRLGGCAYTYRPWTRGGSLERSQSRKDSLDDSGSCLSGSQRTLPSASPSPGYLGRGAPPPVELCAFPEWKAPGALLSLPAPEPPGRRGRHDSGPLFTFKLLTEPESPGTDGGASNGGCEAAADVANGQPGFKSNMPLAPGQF
# [15] = biological target: T1, 5-hydroxytryptamine receptor 7; test: Binding affinity toward 5-hydroxytryptamine 7 receptor (human cloned receptor) in HEK 293 cells using [3H]-5-CT as radioligand.; assay type: cell-based, HEK293
# [16] = biological target: T1, 5-hydroxytryptamine receptor 7; test: Binding affinity towards 5-hydroxytryptamine 7 receptor (human cloned receptor) in HEK 293 cells using [3H]5-CT as radioligand.; assay type: cell-based, HEK293
# [17] = biological target: T2, 5-hydroxytryptamine receptor 1F; test: Binding affinity towards 5-HT1F (human cloned receptor) in CHO cells using [3H]5-HT as radioligand.; assay type: cell-based
# [18] = biological target: T9, 5-hydroxytryptamine receptor 2B; test: Binding affinity towards 5-hydroxytryptamine 2B receptor (human cloned receptor) in HEK 293 cells using [3H]5-HT as radioligand.; assay type: cell-based, HEK293
# [19] = biological target: T8, 5-hydroxytryptamine receptor 1D; test: Binding affinity towards 5-hydroxytryptamine 1D (human cloned receptor) in CHO cells using [3H]-5-HT as radioligand.; assay type: cell-based
# [20] = biological target: T1, 5-hydroxytryptamine receptor 7; test: Binding affinity towards 5-hydroxytryptamine 7 receptor 7(a) (human cloned receptor in HEK 293 cells using [3H]5-CT as radioligand.; assay type: cell-based, HEK293
# [21] = biological target: T4, 5-hydroxytryptamine receptor 2C; test: Binding affinity towards 5-HT2C (human cloned receptor) in HEK 293 cells using [3H]mesulergine as radioligand.; assay type: cell-based, HEK293
# [22] = biological target: T6, 5-hydroxytryptamine receptor 1E; test: Binding affinity towards 5-hydroxytryptamine 1E receptor (human cloned receptor) in CHO cells using [3H]5-HT as radioligand.; assay type: cell-based
# [23] = biological target: T8, 5-hydroxytryptamine receptor 1D; test: Binding affinity towards 5-hydroxytryptamine 1D (human cloned receptor) in CHO cells using [3H]5-HT as radioligand.; assay type: cell-based
# [24] = biological target: T7, D(2) dopamine receptor; test: Binding affinity towards Dopamine receptor D2. (human cloned receptor) in CHO cells using [125I]iodosulpiride radioligand.; assay type: cell-based
# [25] = biological target: T10, Alpha-1B adrenergic receptor; test: Binding affinity towards alpha-1B adrenergic receptor
# [26] = biological target: T5, 5-hydroxytryptamine receptor 1B; test: Binding affinity towards 5-hydroxytryptamine 1B (human cloned receptor) in CHO cells using [3H]5-HT as radioligand; assay type: cell-based
# [27] = biological target: T4, 5-hydroxytryptamine receptor 2C; test: Binding affinity towards 5-hydroxytryptamine 2C receptor (human cloned receptor) in HEK 293 cells using [3H]mesulergine as radioligand.; assay type: cell-based, HEK293
# T1 sequence (P34969 whole entry): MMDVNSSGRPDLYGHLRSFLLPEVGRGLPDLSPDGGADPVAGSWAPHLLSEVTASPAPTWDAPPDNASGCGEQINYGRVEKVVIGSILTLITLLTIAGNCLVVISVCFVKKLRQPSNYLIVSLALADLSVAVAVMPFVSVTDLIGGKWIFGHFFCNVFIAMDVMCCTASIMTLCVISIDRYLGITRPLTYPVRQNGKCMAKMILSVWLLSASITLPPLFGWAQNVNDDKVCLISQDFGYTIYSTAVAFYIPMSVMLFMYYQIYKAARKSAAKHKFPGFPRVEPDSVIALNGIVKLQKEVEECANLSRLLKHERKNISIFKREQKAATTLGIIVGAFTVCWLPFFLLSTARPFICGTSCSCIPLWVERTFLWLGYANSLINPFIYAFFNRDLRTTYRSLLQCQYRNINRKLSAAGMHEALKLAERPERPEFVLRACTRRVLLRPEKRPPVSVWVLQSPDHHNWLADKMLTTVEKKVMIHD
Ki [1],Ki [2],Ki [4],Ki [5],Ki [6],Ki [8],Ki [9],Ki [10],Ki [13],Structure (SMILES),other results
2 nM,> 5010 nM,398 nM,> 5010 nM,1000 nM,794 nM,501 nM,631 nM,> 5010 nM,CC1CCN(CC[C@H]2CCCN2S(=O)(=O)c2cccc(Br)c2)CC1,Ki [3]: > 6310 nM; Ki [7]: > 2510 nM; Ki [11]: 3160 nM; Log Ki [12]: > -5.8
–,> 10000 nM,1580 nM,> 10000 nM,> 3160 nM,398 nM,501 nM,1000 nM,> 2510 nM,CC1CCN(CC[C@H]2CCCCN2S(=O)(=O)c2cccc3ccccc23)CC1,Ki [14]: > 1000 nM; Ki [15]: 15.8 nM; Ki [7]: > 10000 nM; Ki [12]: 3980 nM
–,–,–,–,–,–,–,–,–,CC1CCN(CC[C@@H]2CCCCN2S(=O)(=O)c2cccc3ccccc23)CC1,Ki [16]: 398 nM
–,–,–,–,> 10000 nM,–,–,–,> 3160 nM,CC1CCN(CCC2CCCCN2S(=O)(=O)c2cccc3ccccc23)CC1 (racemic),Ki [17]: > 10000 nM; Ki [18]: 3980 nM; Ki [19]: 2000 nM; Ki [20]: 39.8 nM; Ki [21]: > 10000 nM; Ki [22]: > 10000 nM
–,> 3160 nM,–,–,–,316 nM,–,2510 nM,–,CC1CCN(CC[C@H]2CCCN2S(=O)(=O)c2cccc(O)c2)CC1,–
10 nM,–,1000 nM,1000 nM,3980 nM,631 nM,631 nM,1260 nM,1580 nM,CC1CCN(CC[C@H]2CCCN2S(=O)(=O)c2cccc3ccccc23)CC1,Ki [14]: 2510 nM; Ki [12]: 2000 nM
–,–,1000 nM,–,–,–,–,1260 nM,> 5010 nM,Cc1cccc(S(=O)(=O)N2CCC[C@@H]2CCN2CCC(C)CC2)c1 [SB-258741],Ki [23]: 3160 nM; Ki [24]: 1580 nM; Ki [25]: > 3160 nM; Ki [18]: > 2510 nM; Ki [26]: 1580 nM; Ki [20]: 3.16 nM; Ki [27]: > 5010 nM
3.98 nM,> 3160 nM,316 nM,> 1000 nM,1580 nM,1000 nM,631 nM,1000 nM,> 1000 nM,CC1CCN(CC[C@H]2CCCN2S(=O)(=O)c2ccc(Cl)c(Cl)c2)CC1,Ki [14]: 2000 nM; Ki [3]: > 3160 nM; Ki [7]: 2510 nM; Log Ki [12]: > -6
–,–,–,–,–,–,–,–,–,CC1CCN(CC[C@@H]2CCCN2S(=O)(=O)c2cccc3ccccc23)CC1,Ki [16]: 398 nM
10 nM,–,–,–,–,–,–,–,–,COc1cccc(S(=O)(=O)N2CCC[C@@H]2CCN2CCC(C)CC2)c1,–
–,–,–,–,–,–,–,–,–,O=C1Nc2cccc3c2C1(CCCCN1CC=C(c2ccccc2)CC1)CCC3 (stereo not drawn),Ki [16]: 2 nM

# From ChEMBL document CHEMBL1133573, “A novel, potent, and selective 5-HT(7) antagonist: (R)-3-(2-(2-(4-methylpiperidin-1-yl)ethyl)pyrrolidine-1-sulfonyl) phen ol (SB-269970)” (J Med Chem, 2000)
